Data from patent publication US5430058A, “Pharmaceutical compositions comprising hydroxamate derivatives for iron removal” (Yeda Research and Development Co. Ltd., priority 1993, dated 1995).
In brackets after ≈: the same amount, converted by molar mass. Where two headings read alike, the source gives them in different places.

How the values were obtained:
[1] = system: trophozoites of P. falciparum; assay: Antimalarial activity (Table 2), [3H]-hypoxanthine incorporation; type: cell-based, Plasmodium falciparum; conditions: 40 h
Experimental: g. Bioassay of iron carrier antimalarial activity. The antimalarial activity was assayed by adding the compounds from concentrated stock solutions (in DMSO) to microcultures (24 wells, Costar) containing infected red cells (2.5% hematocrit and 2% parasitemia). The cultures were usually synchronized (4-7 hrs. windows) by incubation in 300 mM Ala, 10 mM TRIS-Cl in conjunction with gelatin flotation and used either at the trophozoite (1-2% parasitemia) or at the ring stage (4-6% parasitemia) of the erythrocyctic cycle. After the indicated time of incubation with drug and either previous to or after washing 3 times with 100 volumes growth medium, the cells were supplemented with 6 μCi of either [^3 H]-hypoxanthine or [^3 H]-Ileu (Amersham, England) per well and parasite growth assessed after 24-48 hours by harvesting the labelled cells onto glass-fiber filters (Tamar, Inc. Jerusalem) and counting of the radioactivity. […]

[2] = system: trophozoites of P. falciparum, strain ItG2G1; assay: Antimalarial activity (Table 1), [3H]hypoxanthine incorporation; type: cell-based; conditions: Plasmodium falciparum
Experimental: f. Parasite cultures. The P. falciparum strains used in the experiments: ItG2G1 (Brazil, provided by Dr. L. H. Miller), D6 (W. African, provided by Dr. A. J. M. Oduola) FCR-3 (Gambian, provided by Dr. J. B. Jensen) and W2 (Indochina, provided by Dr. A. J. M. Oduola), were grown in culture flasks of human erythrocytes by a modified version of Trager and Jensen's method as described by Silfen et al. ((1988) Biochem. Pharmacol. 37: 4269-4276)).
(§1) g. Bioassay of iron carrier antimalarial activity. The antimalarial activity was assayed by adding the compounds from concentrated stock solutions (in DMSO) to microcultures (24 wells, Costar) containing infected red cells (2.5% hematocrit and 2% parasitemia). The cultures were usually synchronized (4-7 hrs. windows) by incubation in 300 mM Ala, 10 mM TRIS-Cl in conjunction with gelatin flotation and used either at the trophozoite (1-2% parasitemia) or at the ring stage (4-6% parasitemia) of the erythrocyctic cycle. After the indicated time of incubation with drug and either previous to or after washing 3 times with 100 volumes growth medium, the cells were supplemented with 6 μCi of either [^3 H]-hypoxanthine or [^3 H]-Ileu (Amersham, England) per well and parasite growth assessed after 24-48 hours by harvesting the labelled cells onto glass-fiber filters (Tamar, Inc. Jerusalem) and counting of the radioactivity.
The antimalarial activity of the different chelators was initially evaluated on cultures of trophozoites which were exposed for 24 hours to different concentrations of chelators. Following that period, [^3 H]-hypoxanthine or [^3 H]-Ileu were added and 24 hours later the parasitemia and incorporation of label into macromolecular material was determined.

[3] = Partition between n-octanol and saline; type: physicochemical; conditions: for rel. Pcoeff (a): Table 2, relative to L-val-n1 = 1.0
Experimental: e. Partition coefficients were obtained by overnight equilibration of the free reversed siderophores between equal volumes of n-octanol and saline. The concentrations of the ligands in each phase were determined by adding excess iron(III) and measuring the ferric complexes at 430 nm.
The values for Pcoeff of free RSF ileun2 (the same as SF1ileu) and of leun2 and their respective iron(III) complexes were similar (not shown).

[4] = system: human HT29 colonic carcinoma cells; assay: Proliferation of mammalian cells, HT29; type: cell-based; conditions: for Proliferation (nucleic acid synthesis): 24 hours exposure, [3H]-hypoxanthine; for Proliferation (protein synthesis): [3H]ileu incorporation, not shown
Experimental: The possibility that the reversed siderophores might affect mammalian cells in culture was assessed in conditions identical to those used for parasites in cultures. […] Nucleic acid synthesis was measured in cultures of mouse NIH 3T3 fibroblasts and human HT29 colonic carcinoma cells in the presence of either SF1-ileu (open circles), desferrioxamine (DFO) (solid triangle) in DMSO or DMSO alone (Control) (<1% final) (open triangles) at same concentrations. Cultures at confluence were exposed to chelators for 24 hours; the first 3 hours without radiolabel and 21 hours with 6 μCi/ml of [^3 H]-hypoxanthine. Extracellular hypoxanthine was removed by several washes with PBS and the cells were treated with 5% TCA for 15 minutes at 5° C. and solubilized with hot 2.5% SDS. Samples were taken for counting of radioactivity and measurement of protein (BCA, Pierce). Data are given as dpm/μg protein and SD (duplicate samples).

infected red cells = assay: Uptake of 59Fe-carrier complexes into infected red cells; type: cell-based, human erythrocytes infected with P. falciparum
Experimental: k. Uptake of radioactive carrier-Fe complexes. DFO and the different SF derivatives were pre-complexed with iron by addition of concentrated stock solutions of 20 mg/ml carriers to ^59 FeCl3 (Amersham, England) in 0.5 ml of 150 mM NaCl, 10 mM Hepes at 3-5 molar excess of carrier for 1 hour at room temperature. To begin the flux, normal or parasitized red cells that had been washed 3 times in saline buffer and resuspended in the same buffer supplemented with 5% bovine serum albumin (BSA), 2.5 mM citrate, 2 mg/ml glucose were added to radioactive ^59 Fe-complexes at a final suspension of 20% hematocrit. After incubation at 37° C., 75 μl suspension was removed in duplicate aliquots for each time point, placed in plastic 15 ml test tube (Starstedt) and centrifuged 1 minute at 2,500 g. The supernatant was removed and the pellet immediately placed on ice. After all sampling was completed the pellets were washed twice in 15 ml of ice cold buffer containing 50 mM EDTA and lysed in distilled water. Radioactivity (Gamma emission, 700-1300 Kev) was counted and the cell number for each sample determined from hemoglobin absorption of the lysate at 410 nm.
Penetration of RSF's into normal and infected red cells was estimated by monitoring uptake of the RSF's-^59 Fe(III) complexes into infected and uninfected cells and compared to DFO. In order to confirm actual uptake of Fe-RSF ileun2 rather than adsorption to the outer membrane, cells were thoroughly washed and lysates were subjected to 80,000g×20 min centrifugation.
The carriers were pre-complexed to ^59 FeCl3 at 4:1 ration in DMSO with 5 μM external FeCl3 (from methanolic stock solutions). The radioactive complexes were then added to 20% hematocrit cell suspensions and flux was measured. […] Cell number was determined from hemoglobin absorption of lysate at 410 nm.

[5] = system: synchronized cultures of rings (P. falciparum); assay: Time dependence of parasite growth inhibition, rings; type: cell-based, Plasmodium falciparum; conditions: for Inhibitory effect, in words: rings; for inhibition at 10 µg/mL: Plasmodium falciparum, read-out: Inhibition of parasite growth
Experimental: as §1
To study the growth stage of parasites most sensitive to inhibition, the time dependence of the inhibitory effect of SF1-ileu (10 μg/ml) vis a vis that of DFO (80 μg/ml) was assessed both on synchronized cultures of rings and of cultures of trophozoites. The cells were exposed to the […], the cells were washed from extracellular drug and assessed for [^3 H]-hypoxanthine incorporation after the last sample completed the 4 hours incubation period with drug.

[6] = iron(III) complex, infected red cells, 5 μM external Fe

Row | SMILES | IC50 (c) [1] | IC50 ([2]; 48 hours exposure, strain ItG2G1 trophozoites, read-out: IC50) | rel. Pcoeff (a) [3] | Proliferation (nucleic acid synthesis) [4] | Proliferation (protein synthesis) [4] | Uptake into infected vs normal red cells (infected red cells; DFO-Fe, 8 hour time course) | Uptake level lower than that attained by RSF's after 10 minutes (infected red cells; intracellular Fe-DFO after 8 hours vs RSF's after 10 minutes) | Inhibitory effect, in words ([5]; DFO 80 μg/ml, 6 hrs exposure) | Inhibitory effect, in words ([5]; DFO 80 μg/ml, 20 hrs exposure) | IC50 ([1]; Plasmodium falciparum, read-out: IC50 (c)) | IC50 ([2]; 48 h) | logP ([3]; Table 1, free ligand, read-out: Partition coefficient (converted)) | Pcoeff of free ligand vs iron(III) complex ([3]; not shown) | Time to maximum uptake (infected red cells; iron(III) complex, infected red cells) | Maximum uptake level (infected red cells; [6]) | Uptake t1/2 (infected red cells; [6]) | inhibition at 10 µg/mL ([5]; 2 h) | inhibition at 10 µg/mL ([5]; 20 h) | Inhibitory effect, in words ([5]; 0.5 hr incubation, SF1-ileu 10 μg/ml)
1 | CC(=O)N(O)CCCCCNC(=O)CCC(=O)N(O)CCCCCNC(=O)CCC(=O)N(O)CCCCCN [DFO, desferrioxamine B, reference compound] | 40000 ± 8000 nM | 30 µg/mL (≈ 53.5 µM) | < 0.056 | neither SF1-ileu nor DFO affected the proliferation | neither SF1-ileu nor DFO affected the proliferation | approximately twice that of normal red cells | 20 fold | inhibitory effects were dismal | substantial inhibition | – | – | – | – | – | – | – | – | – | –
2 | CC[C@H](C)[C@H](NC(=O)CCOCC(CC)(COCCC(=O)N[C@H](C(=O)N(C)O)[C@@H](C)CC)COCCC(=O)N[C@H](C(=O)N(C)O)[C@@H](C)CC)C(=O)N(C)O [SF1-ileu] | – | – | 8.2 | neither SF1-ileu nor DFO affected the proliferation | neither SF1-ileu nor DFO affected the proliferation | – | – | – | – | 3000 ± 2000 nM | 2 µg/mL (≈ 2.57 µM) | 1.15 | similar | 10 to 15 min | 4 nmoles/10^10 cells | 2 to 3 min | ~70% | > 95% | major inhibitory effects
